ChEMBL document CHEMBL5661976 (Cancer Res, 2007)
Active and inactive are the calls of the source. The rule behind the calls is not given here.

Assays:
[1] = molecular target: Receptor tyrosine-protein kinase erbB-2 (Mus musculus, UniProt P70424); assay: Inhibition of ERBB2 expressed in mouse NIH3T3 cells; type: cell-based
NCI-H3255 = assay: Induction of apoptosis in human NCI-H3255 cells assessed as increase in cleavage of PARP at 1 micromol/L incubated for 72 hrs by Western blotting analysis; type: functional, cell-based; conditions: dose 1.0 µmol/L
[2] = molecular target: Receptor tyrosine-protein kinase erbB-3 (Homo sapiens) (UniProt P21860); assay: Inhibition of ERBB3 phosphorylation in human HCC827 cells expressing GFP at 1 to 10000 nmol/L incubated for 12 hrs by Western blotting analysis; type: cell-based; conditions: dose 1-10000 nmol/L
Chain of Receptor tyrosine-protein kinase erbB-3 (Homo sapiens) (P21860 whole entry): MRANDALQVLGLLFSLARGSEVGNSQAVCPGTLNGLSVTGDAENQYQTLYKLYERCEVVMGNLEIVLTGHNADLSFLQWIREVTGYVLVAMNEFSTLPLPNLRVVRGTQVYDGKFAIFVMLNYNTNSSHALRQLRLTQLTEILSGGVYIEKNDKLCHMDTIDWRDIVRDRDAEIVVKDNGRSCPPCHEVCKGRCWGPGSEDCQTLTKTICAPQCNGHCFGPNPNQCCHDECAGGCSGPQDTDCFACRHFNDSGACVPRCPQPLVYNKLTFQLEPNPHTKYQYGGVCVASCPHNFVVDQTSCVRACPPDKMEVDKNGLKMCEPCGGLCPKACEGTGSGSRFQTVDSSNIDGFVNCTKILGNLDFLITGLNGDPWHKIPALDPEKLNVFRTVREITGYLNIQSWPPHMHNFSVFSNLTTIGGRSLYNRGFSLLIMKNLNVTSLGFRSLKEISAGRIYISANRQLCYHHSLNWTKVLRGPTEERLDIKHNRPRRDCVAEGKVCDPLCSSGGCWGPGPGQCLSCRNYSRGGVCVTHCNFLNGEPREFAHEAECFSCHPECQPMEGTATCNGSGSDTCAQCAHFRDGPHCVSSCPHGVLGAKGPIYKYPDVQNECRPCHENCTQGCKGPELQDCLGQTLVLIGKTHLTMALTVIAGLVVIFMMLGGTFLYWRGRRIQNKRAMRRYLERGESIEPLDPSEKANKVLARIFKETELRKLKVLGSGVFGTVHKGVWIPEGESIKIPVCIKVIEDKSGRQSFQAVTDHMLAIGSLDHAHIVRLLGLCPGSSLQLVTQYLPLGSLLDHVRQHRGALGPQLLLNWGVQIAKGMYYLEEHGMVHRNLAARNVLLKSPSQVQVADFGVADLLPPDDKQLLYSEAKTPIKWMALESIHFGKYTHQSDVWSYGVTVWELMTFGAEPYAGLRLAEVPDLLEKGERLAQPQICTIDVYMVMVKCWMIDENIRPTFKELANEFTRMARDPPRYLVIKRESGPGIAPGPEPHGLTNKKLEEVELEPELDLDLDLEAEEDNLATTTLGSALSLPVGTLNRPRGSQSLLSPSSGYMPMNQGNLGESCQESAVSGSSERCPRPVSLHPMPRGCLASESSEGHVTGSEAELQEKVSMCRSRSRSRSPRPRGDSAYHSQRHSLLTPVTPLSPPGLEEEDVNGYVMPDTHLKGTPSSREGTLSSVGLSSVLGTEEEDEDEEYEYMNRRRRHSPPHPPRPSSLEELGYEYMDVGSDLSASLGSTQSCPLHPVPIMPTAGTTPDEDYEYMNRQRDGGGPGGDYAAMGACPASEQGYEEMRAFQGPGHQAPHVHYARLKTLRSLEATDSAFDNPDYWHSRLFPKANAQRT

Chain of Receptor tyrosine-protein kinase erbB-2 (P70424 whole entry): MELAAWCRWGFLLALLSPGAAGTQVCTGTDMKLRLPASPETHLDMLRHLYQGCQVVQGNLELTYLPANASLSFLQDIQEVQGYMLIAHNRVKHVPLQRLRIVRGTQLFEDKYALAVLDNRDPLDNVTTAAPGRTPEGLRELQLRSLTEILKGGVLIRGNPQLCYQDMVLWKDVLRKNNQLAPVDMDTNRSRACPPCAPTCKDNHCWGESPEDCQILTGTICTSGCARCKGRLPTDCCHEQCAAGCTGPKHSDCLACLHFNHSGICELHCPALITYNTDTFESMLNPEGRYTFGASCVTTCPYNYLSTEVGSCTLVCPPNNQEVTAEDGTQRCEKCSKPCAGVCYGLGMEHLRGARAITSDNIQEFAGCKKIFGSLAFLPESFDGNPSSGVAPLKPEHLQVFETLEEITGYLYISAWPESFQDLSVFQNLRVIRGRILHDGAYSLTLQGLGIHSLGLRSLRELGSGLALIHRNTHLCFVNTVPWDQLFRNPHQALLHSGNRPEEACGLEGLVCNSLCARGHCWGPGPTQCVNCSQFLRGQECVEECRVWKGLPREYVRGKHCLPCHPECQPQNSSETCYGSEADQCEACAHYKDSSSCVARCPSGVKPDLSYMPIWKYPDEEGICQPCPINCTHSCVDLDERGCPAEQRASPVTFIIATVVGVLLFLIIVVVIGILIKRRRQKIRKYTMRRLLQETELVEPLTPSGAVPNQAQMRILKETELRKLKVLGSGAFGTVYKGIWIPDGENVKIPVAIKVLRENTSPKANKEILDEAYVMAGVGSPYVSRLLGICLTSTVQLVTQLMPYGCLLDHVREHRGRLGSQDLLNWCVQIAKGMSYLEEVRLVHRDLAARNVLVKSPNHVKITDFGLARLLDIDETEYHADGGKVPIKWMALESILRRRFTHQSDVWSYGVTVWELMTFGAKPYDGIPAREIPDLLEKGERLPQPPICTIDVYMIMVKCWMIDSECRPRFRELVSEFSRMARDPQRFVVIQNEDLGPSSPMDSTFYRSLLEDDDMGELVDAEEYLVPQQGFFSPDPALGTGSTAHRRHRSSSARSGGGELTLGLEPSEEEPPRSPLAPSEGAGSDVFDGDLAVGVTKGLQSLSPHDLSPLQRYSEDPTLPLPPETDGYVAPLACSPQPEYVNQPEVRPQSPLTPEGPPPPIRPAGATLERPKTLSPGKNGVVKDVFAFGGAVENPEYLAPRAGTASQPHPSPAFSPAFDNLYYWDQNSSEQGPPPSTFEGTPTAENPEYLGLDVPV

| IC50 [1] | inhibition [2] | Compound | Activity (NCI-H3255) |
| --- | --- | --- | --- |
| 299 nM |  | C#Cc1cccc(Nc2ncnc3cc(OCCOC)c(OCCOC)cc23)c1 [ERLOTINIB] |  |
| > 500 nM | Active | COc1cc2ncnc(Nc3ccc(F)c(Cl)c3)c2cc1OCCCN1CCOCC1 [GEFITINIB] | Active |
